In patent US9205064B2, “Methods for the diagnosis of oncological disorders using epimetabolic shifters, multidimensional intracellular molecules, or environmental influencers” (Berg LLC, priority 2009, dated 2015):

Assays:
[1] = tested on: oncogenic and normal cell lines; assay: Minimal CoQ10 concentration and treatment time for induction of early apoptosis (Bcl-2, caspase activation, annexin V); format: cell-based
Procedure: CoQ10 treatment of cells was carried out as described in detail below in the Materials and Methods. Induction of apoptosis was assessed in the treated cells by monitoring indicators of early apoptosis (e.g., Bcl-2 expression, caspase activation and by using annexin V assays) as described below. From these studies, the minimal CoQ10 dosage, e.g., concentration of CoQ10 and time of treatment, required to induce apoptosis in the panel of cell lines was determined.
Cells were cultured in T-75 flasks with relevant medium supplemented with 10% Fetal Bovine Serum (FBS), 1% PSA (penicillin, streptomycin, amphotericin B) (Invitrogen and Cellgro) in a 37° C. incubator with 5% CO2 levels until 70-80% confluence was reached. To harvest cells for treatment, flasks were primed with 1 mL Trypsin, aspirated, trypsinized with an additional 3 mL, and incubated at 37° C. for 3-5 minutes. Cells were then neutralized with an equal volμme of media and the subsequent solution was centrifuged at 10,000 rpm for 8 minutes. The supernatant was aspirated and the cells were resuspended with 8.5 ml of media. A mixture of 500 ul of the resuspension and 9.5 ml of […] was read twice by a coulter counter and the appropriate number of cells to be seeded into each dish was determined Control and concentration ranging from 0-200 μM groups were examined in triplicate. From a 500 μM CoQ-10 stock solution, serial dilutions were performed to achieve desired experimental concentration in appropriate dishes. Dishes were incubated in a 37° C. incubator with 5% CO2 levels for 0-72 hours depending on cell type and experimental protocol.
Following cell treatment incubation period was complete, protein isolation was performed. Dishes of all treatment groups were washed twice with 2 ml, and once with 1 ml of ice cold 1× Phosphate Buffered Saline (PBS). The PBS was aspirated from the dishes after the initial 2 washes only. Cells were gently scraped and collected into microcentrifuge tubes using the final volume from the third wash and centrifuged at 10,000 rpm for 10 minutes. After centrifugation, the supernatant was aspirated and the pellet was lysed with 50 uL of lysis buffer (1 uL of protease and phosphotase inhibitor for every 100 uL of lysis buffer). Samples were then frozen overnight at −20° C.
After the cell treatment incubation period was complete, protein isolation was performed. Flasks of all treatment groups were washed twice with 5 mL, and once with 3 mL of ice cold 1×PBS. The PBS was aspirated from the flasks after the first 2 washes only. Cells were gently scraped and collected into 15 mL centrifuge tubes using the final volume from the third wash and centrifuged for at 10,000 rpm for 10 minutes. After centrifugation, the supernatant was aspirated and the pellet was lysed with an appropriate amount of lysis buffer (1 uL of protease and phosphotase inhibitor for every 100 uL of lysis buffer). Lysis buffer volume was dependent on pellet size. Samples were transferred in microcentrifuge tubes and frozen overnight at −20° C.
Samples were thawed at […] and sonicated to ensure homogenization the day following protein isolation. Protein quantification was performed using the micro BCA protein assay kit (Pierce). To prepare samples for Immuno-blotting, a 1:19 solution of betamercaptoethanol (Sigma) to sample buffer (Bio-Rad) was prepared. Samples were diluted 1:1 with the betamercaptoethanol-sample buffer solution, boiled at 95° C. for 5 minutes, and frozen overnight at −20° C.
The volume of sample to load per well was determined using the raw mean concentration of protein obtained from the BCA protein assay. Approximately 30-60 μg of protein were loaded for each treatment time point. Proteins were run in triplicate on 12% Tris-HCl ready gels (Bio-Rad) or hand cast gels in 1× running buffer at 85 and 100 volts. Proteins were then transferred onto nitrocellulose paper for an hour at 100 volts, and blocked for another hour in a 5% milk solution. […]

SCC cells = assay: Real-time PCR Apoptosis Array; format: cell-based
Procedure: The control cells were untreated cells.
RNA was quantified by measuring Optical Density at 260 nm.
The genes in the Apoptosis array that appear to be regulated in SCC cells are described in Table 7. […] By 24 hours, the regulation is decreased.

SMILES: COC1=C(OC)C(=O)C(C/C=C(\C)CC/C=C(\C)CC/C=C(\C)CC/C=C(\C)CC/C=C(\C)CC/C=C(\C)CC/C=C(\C)CC/C=C(\C)CC/C=C(\C)CCC=C(C)C)=C(C)C1=O [Q10, Coenzyme Q10]
- Indication of Early apoptosis (Bcl-2, annexin V, or caspase activation) ([1]; BONE: Ewing's sarcoma (NCI)): Extremely strong
- Minimal CoQ10 Concentration for early apoptosis ([1]; BONE: Ewing's sarcoma (NCI)): 5 µM
- Minimal treatment Time for early apoptosis ([1]; BONE: Ewing's sarcoma (NCI)): 1 h
- Indication of Early apoptosis (Bcl-2, annexin V, or caspase activation) ([1]; BONE: Osteosarcoma (143b)): Very Strong
- Minimal CoQ10 Concentration for early apoptosis ([1]; BONE: Osteosarcoma (143b)): 50 µM
- Minimal treatment Time for early apoptosis ([1]; BONE: Osteosarcoma (143b)): 48 h
- Indication of Early apoptosis (Bcl-2, annexin V, or caspase activation) ([1]; BREAST: BT-20): Strong
- Minimal CoQ10 Concentration for early apoptosis ([1]; BREAST: BT-20): 100 µM
- Minimal treatment Time for early apoptosis ([1]; BREAST: BT-20): 48 h
- Indication of Early apoptosis (Bcl-2, annexin V, or caspase activation) ([1]; BREAST: MCF-7): Strong
- Minimal CoQ10 Concentration for early apoptosis ([1]; BREAST: MCF-7): 50 µM
- Minimal treatment Time for early apoptosis ([1]; BREAST: MCF-7): 48 h
- Indication of Early apoptosis (Bcl-2, annexin V, or caspase activation) ([1]; BREAST: MDA MB 468): Strong
- Minimal CoQ10 Concentration for early apoptosis ([1]; BREAST: MDA MB 468): 100 µM
- Minimal treatment Time for early apoptosis ([1]; BREAST: MDA MB 468): 48 h
- Indication of Early apoptosis (Bcl-2, annexin V, or caspase activation) ([1]; BREAST: SkBr-3): Very Strong
- Minimal CoQ10 Concentration for early apoptosis ([1]; BREAST: SkBr-3): 50 µM
- Minimal treatment Time for early apoptosis ([1]; BREAST: SkBr-3): 24 h
- Indication of Early apoptosis (Bcl-2, annexin V, or caspase activation) ([1]; BREAST: ZR-75): Slight
- Minimal CoQ10 Concentration for early apoptosis ([1]; BREAST: ZR-75): 200 µM
- Minimal treatment Time for early apoptosis ([1]; BREAST: ZR-75): 72 h
- Indication of Early apoptosis (Bcl-2, annexin V, or caspase activation) ([1]; Fibroblasts (nFib)): None
- Indication of Early apoptosis (Bcl-2, annexin V, or caspase activation) ([1]; Heart: Aortic smooth muscle (HASMC)): None
- Indication of Early apoptosis (Bcl-2, annexin V, or caspase activation) ([1]; Keratinocytes (Heka, Hekn)): None
- Indication of Early apoptosis (Bcl-2, annexin V, or caspase activation) ([1]; LIVER: Hep3B): Very Strong
- Minimal CoQ10 Concentration for early apoptosis ([1]; LIVER: Hep3B): 50 µM
- Minimal treatment Time for early apoptosis ([1]; LIVER: Hep3B): 24 h
- Indication of Early apoptosis (Bcl-2, annexin V, or caspase activation) ([1]; LIVER: HepG2): Very Strong
- Minimal CoQ10 Concentration for early apoptosis ([1]; LIVER: HepG2): 50 µM
- Minimal treatment Time for early apoptosis ([1]; LIVER: HepG2): 24 h
- Indication of Early apoptosis (Bcl-2, annexin V, or caspase activation) ([1]; Mammary fiboblasts: 184A1 and 184B5): None
- Indication of Early apoptosis (Bcl-2, annexin V, or caspase activation) ([1]; Melanocytes (Hema, LP)): None
- Indication of Early apoptosis (Bcl-2, annexin V, or caspase activation) ([1]; Melanoma (Skmel 2)): Very Strong
- Minimal CoQ10 Concentration for early apoptosis ([1]; Melanoma (Skmel 2)): 25 µM
- Minimal treatment Time for early apoptosis ([1]; Melanoma (Skmel 2)): 24 h
- Indication of Early apoptosis (Bcl-2, annexin V, or caspase activation) ([1]; Melanoma (Skmel 28)): Strong
- Minimal CoQ10 Concentration for early apoptosis ([1]; Melanoma (Skmel 28)): 20 µM
- Minimal treatment Time for early apoptosis ([1]; Melanoma (Skmel 28)): 24 h
- Indication of Early apoptosis (Bcl-2, annexin V, or caspase activation) ([1]; PANCREAS: PaCa2): Very Strong
- Minimal CoQ10 Concentration for early apoptosis ([1]; PANCREAS: PaCa2): 25 µM
- Minimal treatment Time for early apoptosis ([1]; PANCREAS: PaCa2): 24 h
- Indication of Early apoptosis (Bcl-2, annexin V, or caspase activation) ([1]; PROSTATE: PC3): Very Strong
- Minimal CoQ10 Concentration for early apoptosis ([1]; PROSTATE: PC3): 25 µM
- Minimal treatment Time for early apoptosis ([1]; PROSTATE: PC3): 24 h
- Indication of Early apoptosis (Bcl-2, annexin V, or caspase activation) ([1]; SCC, Squamous cell carcinoma): Very Strong
- Minimal CoQ10 Concentration for early apoptosis ([1]; SCC, Squamous cell carcinoma): 25 µM
- Minimal treatment Time for early apoptosis ([1]; SCC, Squamous cell carcinoma): 24 h
- effect on normal cells, including keratinocytes and dermal fibroblasts ([1]; normal tissue environment): increased proliferation and migration
- efficacy of treatment (induction of apoptosis) across cell types ([1]; panel of oncogenic and normal cell lines): greater in cell types that exhibited increased oncogenicity and/or greater metastatic potential
- AKT1 mRNA Regulation (SCC cells; 100 μM Q10, 6 hours): Down regulated at 6 hours and then
- BCL2L1 mRNA Regulation (SCC cells; 100 μM Q10, 6 hours): Down regulated at 6 hours and then
- BIRC3 mRNA Regulation (SCC cells; 100 μM Q10, 6 hours): Down regulated at 6 hours.
- CARD6 mRNA Regulation (SCC cells; 100 μM Q10, 6 hours): Down regulated at 6 hours.
- CD27 mRNA Regulation (SCC cells; 100 μM Q10, 6 hours): Down regulated at 6 hours.
- CD40 mRNA Regulation (SCC cells; 100 μM Q10, 6 hours): Down regulated at 6 hours.
- CD70 mRNA Regulation (SCC cells; 100 μM Q10, 6 hours): Down regulated at 6 hours.
- TNFRSF9 mRNA Regulation (SCC cells; 100 μM Q10, 6 hours): Down regulated at 6 hours.
- TNFRSF21 mRNA Regulation (SCC cells; 100 μM Q10, 6 hours): Down regulated at 6 hours.
- TNFRSF25 mRNA Regulation (SCC cells; 100 μM Q10, 6 hours): Down regulated at 6 hours and then
- TP73 mRNA Regulation (SCC cells; 100 μM Q10, 6 hours): Down regulated at 6 hours and then
- AKT1 mRNA Regulation (SCC cells; 100 μM Q10, 24 hours): up regulated at 24 hours.
- BAG4 mRNA Regulation (SCC cells; 100 μM Q10, 24 hours): Up regulated at 24 hours.
- BAX mRNA Regulation (SCC cells; 100 μM Q10, 24 hours): Up regulated at 24 hours.
- BCL2L1 mRNA Regulation (SCC cells; 100 μM Q10, 24 hours): up regulated at 24 hours.
- BCL2 mRNA Regulation (SCC cells; 100 μM Q10, 24 hours): Up regulated at 24 hours.
- BNIP3 mRNA Regulation (SCC cells; 100 μM Q10, 24 hours): Down regulated at 24 hours.
- CASP6 mRNA Regulation (SCC cells; 100 μM Q10, 24 hours): Up regulated at 24 hours.
- CASP7 mRNA Regulation (SCC cells; 100 μM Q10, 24 hours): Up regulated at 24 hours.
- FADD mRNA Regulation (SCC cells; 100 μM Q10, 24 hours): Up regulated at 24 hours.
- GADD45A mRNA Regulation (SCC cells; 100 μM Q10, 24 hours): Up regulated at 24 hours.
- HRK mRNA Regulation (SCC cells; 100 μM Q10, 24 hours): Up regulated at 24 hours.
- TNFRSF25 mRNA Regulation (SCC cells; 100 μM Q10, 24 hours): up regulated at 24 hours.
- TNFSF10 mRNA Regulation (SCC cells; 100 μM Q10, 24 hours): Up regulated at 24 hours.
- TP53 mRNA Regulation (SCC cells; 100 μM Q10, 24 hours): Up regulated at 24 hours.
- TP73 mRNA Regulation (SCC cells; 100 μM Q10, 24 hours): up regulated at 24 hours.
- TRAF2 mRNA Regulation (SCC cells; 100 μM Q10, 24 hours): Up regulated at 24 hours.
